Patent publication US11964988B2, “Fused heterocyclic compounds as RET kinase inhibitors” (ARRAY BIOPHARMA INC., priority 2018, dated 2024)
Residue numbers refer to the chain shown, from its start. pIC50: −log10 of the molar value.

Tests used:
[1] = biological target: T1, HEK-293 cells expressing a G810R mutant RET Kif5b-RET fusion protein (Homo sapiens, UniProt P07949, G810R); experiment: RET G810R Mutant Cell Assay (phospho-RET Tyr1062); format: cell-based; details: HEK-293 Kif5b-RET G810R, 1 hour incubation, phospho-RET normalized to GAPDH
T1 construct: KIF5B (N-terminal portion incl. coiled-coil); expressed in transfected cells; host or cells: HEK-293; the other entry of the earlier key: KIF5B (P33176, Kinesin-1 heavy chain)
T1 sequence (P07949 713-1063 G810R limits assumed): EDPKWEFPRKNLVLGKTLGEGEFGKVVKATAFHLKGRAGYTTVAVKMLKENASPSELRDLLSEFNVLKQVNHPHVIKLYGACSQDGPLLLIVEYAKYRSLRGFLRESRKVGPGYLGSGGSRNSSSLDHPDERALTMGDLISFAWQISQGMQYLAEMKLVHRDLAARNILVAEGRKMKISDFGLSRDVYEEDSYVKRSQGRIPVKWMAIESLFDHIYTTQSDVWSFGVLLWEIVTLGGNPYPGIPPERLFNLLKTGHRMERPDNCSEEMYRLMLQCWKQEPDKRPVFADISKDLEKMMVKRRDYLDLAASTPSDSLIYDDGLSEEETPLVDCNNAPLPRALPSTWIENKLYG
Description: (§1) The cellular potency of compounds inhibiting RET kinase were determined in HEK-293 cells expressing a G810R or G810S mutant RET Kif5b-RET fusion protein. Briefly, HEK-293 cells expressing a G810R or G810S mutant RET Kif5b-RET fusion protein were plated at 50K cells/well in 96 well poly-D-Lysine coated plates the day prior to the assay. The cells were incubated for 1 hour with test compound in DMEM (Dulbecco's Modified Eagle Medium) at a final DMSO concentration of 0.5%. […] After 1 hour the media was removed, the cells were fixed with 3.8% formaldehyde for 20 min, washed with PBS, and permeabilized for 10 min with 100% methanol. The plates were then washed with PBS-0.05% Tween20, and blocked with LI-COR Blocking solution (LI-COR Catalog No. 927-40000) for 1 hour. Plates were washed with PBS-0.05% Tween20, then incubated with anti-phospho-RET (Tyr1062) (Santa Cruz Catalog No. sc-20252-R) antibody and anti-GAPDH (Millipore Catalog No. MAB374) antibody for 2 hours. The plates were washed with PBS-0.05% Tween20, and incubated with anti-rabbit 680 (Molecular Probes Catalog No. A21109) and anti-mouse 800 (LI-COR Catalog No. 926-32210) secondary antibodies for 1 hour. All antibodies were diluted in LI-COR Block containing 0.05% Tween. The plates were washed with PBS-0.05% Tween20,100 μL PBS was added to each well, and the plates were read on a LI-COR Aerius fluorescent plate reader. The phospho-RET signal was normalized to the GAPDH signal. […] The POC values are fit to a 4 parameter logistic curve. The IC50 value is the point where the curve crosses 50 POC.

[2] = biological target: T2, HEK-293 cells expressing a Kif5b-RET fusion protein (Homo sapiens, UniProt P07949); experiment: RET Cell Assay (phospho-RET Tyr1062); format: cell-based; details: HEK-293 Kif5b-RET, 1 hour incubation, phospho-RET normalized to GAPDH; read-out: KIF5B-RET pTYR1062 Cell IC50
T2 construct: KIF5B (N-terminal portion incl. coiled-coil); expressed in transfected cells; host or cells: HEK-293; the other entry of the earlier key: KIF5B (P33176, Kinesin-1 heavy chain)
T2 sequence (P07949 713-1063 limits assumed): T1 sequence (P07949 713-1063 G810R limits assumed) with R98G
Description: as §1, with “a” for “a G810R or G810S mutant RET”, “PBS is” for “PBS was”, “values were” for “values are”

[3] = biological target: G810S mutant RET kinase (Homo sapiens, UniProt P07949, G810S); experiment: biochemical;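 note: HTRF KinEASE-TK kinase assay with recombinant enzyme, 1 h at 22 °C, dual-wavelength ratiometric read-out, percent of control (DMSO-only = 100, pre-quenched reaction = 0)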
G810S mutant RET kinase, sequence (P07949 29-1114 G810S): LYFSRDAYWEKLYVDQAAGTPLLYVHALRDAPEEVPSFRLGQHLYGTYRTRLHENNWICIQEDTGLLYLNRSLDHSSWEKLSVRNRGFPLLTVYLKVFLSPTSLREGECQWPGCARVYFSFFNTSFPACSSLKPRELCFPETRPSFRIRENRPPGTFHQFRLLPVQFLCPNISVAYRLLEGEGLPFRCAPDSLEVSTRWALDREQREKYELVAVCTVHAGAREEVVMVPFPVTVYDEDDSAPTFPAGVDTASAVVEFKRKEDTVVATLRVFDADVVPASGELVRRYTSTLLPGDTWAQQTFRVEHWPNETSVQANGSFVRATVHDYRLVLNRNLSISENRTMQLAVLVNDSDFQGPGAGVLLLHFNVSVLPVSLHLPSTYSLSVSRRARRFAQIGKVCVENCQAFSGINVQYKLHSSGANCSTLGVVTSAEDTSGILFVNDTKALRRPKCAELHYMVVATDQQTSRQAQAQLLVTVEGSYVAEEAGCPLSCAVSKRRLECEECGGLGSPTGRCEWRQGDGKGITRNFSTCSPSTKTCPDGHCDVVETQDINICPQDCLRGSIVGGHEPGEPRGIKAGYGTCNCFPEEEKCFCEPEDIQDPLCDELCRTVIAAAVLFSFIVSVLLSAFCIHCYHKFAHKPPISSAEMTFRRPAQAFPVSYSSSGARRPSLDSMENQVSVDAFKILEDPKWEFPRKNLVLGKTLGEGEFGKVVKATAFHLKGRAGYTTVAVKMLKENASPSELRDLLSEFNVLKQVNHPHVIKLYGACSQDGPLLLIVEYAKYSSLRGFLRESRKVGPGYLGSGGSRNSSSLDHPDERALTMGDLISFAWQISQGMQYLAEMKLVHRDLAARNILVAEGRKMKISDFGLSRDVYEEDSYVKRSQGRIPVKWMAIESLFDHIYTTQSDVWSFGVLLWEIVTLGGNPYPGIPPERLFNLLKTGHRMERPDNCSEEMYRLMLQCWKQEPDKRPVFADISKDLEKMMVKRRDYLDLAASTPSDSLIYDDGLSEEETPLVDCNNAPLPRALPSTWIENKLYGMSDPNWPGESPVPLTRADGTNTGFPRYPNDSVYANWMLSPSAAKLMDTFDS
Description: (§2) The potency of compounds inhibiting several different RET kinase forms (Wild Type, V804M, G810R, & G810S) were determined using CisBio's HTRF® KinEASE™-TK assay technology. […] After a 1 hour incubation at 22° C., the extent of reaction was determined using a PerkinElmer EnVision multimode plate reader via HTRF dual wavelength detection, and the percent of control (POC) was calculated using a ratiometric emission factor. One hundred POC was determined using DMSO only samples (no compound present), and 0 POC was determined using pre-quenched control reactions.
(§3) The potency of a compound inhibiting G810R or G810S mutant RET kinase was determined using CisBio's HTRF® KinEASE™-TK assay technology. The assays contained G810R or G810S mutant RET produced at Array Biopharma, Inc. (1 nM enzyme). […] After a 1-h incubation at 22° C., the extent of reaction was determined using a PerkinElmer EnVision multimode plate reader via HTRF dual wavelength detection, and the percent of control (POC) was calculated using a ratiometric emission factor. One hundred POC was determined using no test compounds, and 0 POC was determined using pre-quenched control reactions.

[4] = biological target: G810R mutant RET kinase (Homo sapiens, UniProt P07949, G810R); experiment: biochemical;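 note: HTRF KinEASE-TK enzymatic assay with 1 nM recombinant RET G810R, 1 h at 22 °C, dual-wavelength ratiometric readout, 100% control without compound, 0% from pre-quenched reactions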
G810R mutant RET kinase, sequence (P07949 29-1114 G810R): as the sequence (P07949 29-1114 G810S) above, with S782R counted along it
Description: as §2, §3

[5] = biological target: RET kinase Wild Type (Homo sapiens, UniProt P07949); experiment: biochemical;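 note: HTRF kinase activity assay on RET enzyme, 1 h reaction at 22 °C, dual-wavelength readout as percent of control, DMSO-only wells as 100%, pre-quenched reactions as 0%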
RET kinase Wild Type, sequence (P07949 29-1114): as the sequence (P07949 29-1114 G810S) above, with S782G counted along it
Description: as §2

[6] = biological target: RET kinase V804M (Homo sapiens, UniProt P07949, V804M); experiment: RET Enzyme Assay (CisBio HTRF KinEASE-TK), V804M; format: biochemical; details: read-out: RET V804M Enz FRET IC50
RET kinase V804M, sequence (P07949 29-1114 V804M): as the sequence (P07949 29-1114 G810S) above, with V776M, S782G counted along it
Description: as §2

[7] = biological target: T3, HEK-293 cells expressing a G810S mutant RET Kif5b-RET fusion protein (Homo sapiens, UniProt P07949, G810S); experiment: RET G810S Mutant Cell Assay (phospho-RET Tyr1062); format: cell-based; details: HEK-293 Kif5b-RET G810S, 1 hour incubation, phospho-RET normalized to GAPDH
T3 construct: KIF5B (N-terminal portion incl. coiled-coil); expressed in transfected cells; host or cells: HEK-293
T3 sequence (P07949 713-1063 G810S limits assumed): T1 sequence (P07949 713-1063 G810R limits assumed) with R98S
Description: as §1

SMILES | pIC50 [1] | pIC50 [2] | pIC50 [3] | pIC50 [4] | pIC50 [5] | pIC50 [6] | pIC50 [7]
CCCN1Cc2c(c3c(N)ncnc3n2C(C)C)-c2noc(C3CC3)c2C1=O [Example 4] | 6.54 | 7.22 | 6.87 | 6.80 | 7.80 | 6.97 | –
CC(C)n1c2c(c3c(N)ncnc31)-c1noc(C3CC3)c1C(=O)N(CC1CC1)C2 [Example 5, 11-amino-3-cyclopropyl-5-(cyclopropylmethyl)-7-isopropyl-6,7-dihydroisoxazolo[4,3-c]pyrimido[5′,4′:4,5]pyrrolo[3,2-e]azepin-4(5H)-one] | 6.34 | 7.12 | 6.86 | 6.80 | 7.77 | 7.00 | –
CC(C)n1c2c(c3c(N)ncnc31)-c1noc(C3CC3)c1C(=O)N(Cc1ccccc1)C2 [Example 7, 11-amino-5-benzyl-3-cyclopropyl-7-isopropyl-6,7-dihydroisoxazolo[4,3-c]pyrimido[5′,4′:4,5]pyrrolo[3,2-e]azepin-4(5H)-one] | 6.18 | 6.87 | 6.45 | 6.77 | 7.04 | 6.47 | –
CC(C)n1c2c(c3c(N)ncnc31)-c1noc(C3CC3)c1C(=O)N(CCc1ccccc1)C2 [Example 8, 11-amino-3-cyclopropyl-7-isopropyl-5-phenethyl-6,7-dihydroisoxazolo[4,3-c]pyrimido[5′,4′:4,5]pyrrolo[3,2-e]azepin-4(5H)-one] | 6.52 | 7.04 | 6.91 | 7.02 | 7.39 | 6.64 | –
CC(C)n1c2c(c3c(N)ncnc31)-c1noc(C3CC3)c1S(=O)(=O)N(C)C2 [Example 22, 11-amino-3-cyclopropyl-7-isopropyl-5-methyl-6,7-dihydro-5H-isoxazolo[3,4-f]pyrimido[5′,4′:4,5]pyrrolo[2,3-d][1,2]thiazepine 4,4-dioxide] | 6.30 | 7.19 | 7.12 | 6.99 | 7.51 | 6.49 | –
CC(C)n1c2c(c3c(N)ncnc31)-c1noc(C3CC3)c1C(=O)OC2 [Example 24, 11-amino-3-cyclopropyl-7-isopropyl-6,7-dihydro-4H-isoxazolo[3″,4″:5′,6′]oxepino[4′,3′:4,5]pyrrolo[2,3-d]pyrimidin-4-one] | 6.74 | 7.40 | 7.06 | 7.15 | 7.60 | 7.04 | –
CC(C)n1c2c(c3c(N)ncnc31)-c1noc(C3CC3)c1C=CC2 [Example 30, 3-cyclopropyl-7-isopropyl-6,7-dihydroisoxazolo[4″,3″:6′,7′]cyclohepta[1′,2′:4,5]pyrrolo[2,3-d]pyrimidin-11-amine] | 5.67 | 6.81 | 6.52 | 6.74 | 7.03 | 6.59 | –
CC(C)n1c2c(c3c(N)ncnc31)-c1noc(C3CC3)c1CN(S(C)(=O)=O)C2 [Example 35, 3-cyclopropyl-7-isopropyl-5-(methylsulfonyl)-4,5,6,7-tetrahydroisoxazolo[4,3-c]pyrimido[5′,4′:4,5]pyrrolo[3,2-e]azepin-11-amine 2,2,2-trifluoroacetate] | 6.08 | 7.46 | 6.96 | 6.91 | 7.33 | 6.94 | –
CC(C)n1c2c(c3c(N)ncnc31)-c1ccc(C3CC3)cc1C(=O)NC2 [Example 47, 12-amino-3-cyclopropyl-8-isopropyl-7,8-dihydrobenzo[c]pyrimido[5′,4′:4,5]pyrrolo[3,2-e]azepin-5(6H)-one] | 5.71 | 6.87 | 6.52 | 6.57 | 6.95 | 5.03 | –
CNC(=O)c1ccc2cc3n(c2c1)C(=O)NCc1c-3c2c(N)ncnc2n1C(C)C [Example 73, 1-Amino-5-isopropyl-N-methyl-8-oxo-5,6,7,8-tetrahydropyrimido[5″,4″:4′,5′]pyrrolo[2′,3′:5,6][1,3]diazepino[1,7-a]indole-11-carboxamide] | – | 4.86 | 5.61 | 5.56 | 6.27 | – | 4.78
CC(C)n1c2c(c3c(N)ncnc31)-c1cc3ccc(C(=O)Nc4ccccn4)cc3n1CCC2 [Example 90, 1-amino-5-isopropyl-N-(pyridin-2-yl)-5,6,7,8-tetrahydropyrimido[5″,4″:4′,5′]pyrrolo[3′,2′: 3,4]azepino[1,2-a]indole-11-carboxamide] | – | 6.65 | 5.80 | 5.98 | 6.45 | – | 6.39
CC(C)n1c2c(c3c(N)ncnc31)-c1cc3ccc(C(=O)Nc4cnn(C)c4)cc3n1CCC2 [Example 93, 1-amino-5-isopropyl-N-(1-methyl-1H-pyrazol-4-yl)-5,6,7,8-tetrahydropyrimido[5″,4″:4′,5′]pyrrolo[3′,2′: 3,4]azepino[1,2-a]indole-11-carboxamide] | – | 6.00 | 5.25 | 5.72 | 5.90 | – | 6.00
